Measured values reported in patent publication US20230250123A1, “GUT MICROBIOTA BIOACTIVATED PDE4 INHIBITOR PRECURSORS” (Giiant Pharma Inc., priority 2020, published 2023).

Experiments:
[1] = Bidirectional Caco-2 permeability assay; assay type: in vitro ADME; settings: human; Caco-2, 10 µM, apical pH 6.0 / basolateral pH 7.4, average of 2 determinations
Experimental: In vitro glycoside prodrug permeability assessment. The permeability of the glycoside prodrugs were measured using the bidirectional Caco-2 assay. Caco-2 cells were seeded onto permeable polycarbonate supports in 12-well Costar Transwell plates and allowed to grow and differentiate for 21-25 days. On day 24, culture medium (DMEM supplemented with 10% FBS, 1% non-essential amino acids and penicillin/streptomycin) was removed from both sides of the transwell inserts and cells were rinsed with warm HBSS. […] The buffer in the donor chamber (apical side for A-to-B assay, basolateral side for B-to-A assay) was removed and replaced with the working solution (10 µM test article in transport buffer). The plates were then placed at 37° C. under light agitation. At designated time points (30, 60 and 90 min); an aliquot of transport buffer from the receiver chamber was removed and replenished with fresh transport buffer. Samples were quenched with ice-cold CH3CN containing internal standard and then centrifuged to precipitate the protein. Resulting supernatants were further diluted with 50/50 ACN/H2O (H2O only for Atenolol) and submitted for LC/MS/MS analysis. […] Atenolol and propranolol were tested as low and […] permeability references. […] The apparent permeability (Papp, measured in cm/s) of a compound is determined according to the following formula: […]
Where dQ/dt is the net rate of appearance in the receiver compartment, A is the area of the Transwell measured in cm^2 (1.12 cm^2), C0 is the initial concentration of compound added to the donor chamber and 60 is the conversion factor for the minute to second.

[2] = In vivo glycoside prodrug bioactivation, oral dosing to rats
[3] = Negative control: incubation in mouse feces extract supernatant inactivated by boiling; assay type: in vitro ADME; settings: 24 hours, mouse feces supernatant boiled 10 minutes (no enzyme activities)
Experimental: (§1) In vitro rate of glycoside prodrugs hydrolysis. The metabolic stability of prodrug candidates to release the parent PDE4 inhibitor could be assessed in vitro according, but not restricted, to the following protocol: feces were collected overnight on a mixture of dry and wet ice in a metabolic cage. Ten volumes (v/w; 30 mL) of 100 mM phosphate buffer (pH 6.5) were added to 3 g of freshly collected rodent feces. The mixture was homogenized with a Stomacher Circulator 400 (2 × 1 min-cycles at 225 rpm). The mixture was transferred to a 50 mL tubes, centrifuged at 10 000xg for 10 min (4° C.) and the supernatant was passed through a 0.45 µm-filter. In a 96 deep-well plate, 198 µL of feces supernatant were aliquoted in 2 wells per compound. Each compound, including positive control, was tested in duplicate. Then 2 µL of 10 mM stock solution of each test compound were spiked in individual wells (duplicate) at a final concentration of 100 µM and samples were sealed and mixed 30 sec at 1000 rpm using a vortexer. Samples were incubated at 37° C. for the desired time in the Thermomixer with constant agitation (300 rpm). At desired time-point, 25 µL of reaction mixture was added to 225 µL of ice-cold quenching solution (acetonitrile + 0.1% (v/v) formic acid) to stop the bacterial enzymatic activity. The quenched incubates were mixed and centrifuged 10 min at 21 000xg at 4° C. A real t0 (no metabolism, 100% total recovery of unchanged prodrug) was generated by adding 22.5 µL of feces supernatant to 225 µL of ice-cold quenching solution (acetonitrile + 0.1% (v/v) formic acid). Then 2.5 µL of 1 mM solution of each test compounds was added, sealed, mixed thoroughly and centrifuged 10 min at 21 000xg at 4° C. All samples, including analytical standards, were analyzed by LC-MS/MS to measure the concentration of the parent PDE4 inhibitor released and the concentration of the corresponding prodrug remaining. […]

β-D-glucuronidase = experiment: Positive control: incubation with β-D-glucuronidase in phosphate buffer; assay type: in vitro ADME; settings: β-D-glucuronidase 50U/mL, phosphate buffer pH 6.5, 37° C., 24 hours
[4] = In vitro rate of glycoside prodrug hydrolysis in feces supernatant, mouse; assay type: in vitro ADME; settings: 100 µM, 37° C., pH 6.5, 24 hr
Experimental: (§2) In vitro rate of glycoside prodrugs hydrolysis. The metabolic stability of prodrug candidates to release the parent PDE4 inhibitor could be assessed in vitro according, but not restricted, to the following protocol: feces were collected overnight on a mixture of dry and wet ice in a metabolic cage. Ten volumes (v/w; 30 mL) of 100 mM phosphate buffer (pH 6.5) were added to 3 g of freshly collected rodent feces. The mixture was homogenized with a Stomacher Circulator 400 (2 × 1 min-cycles at 225 rpm). The mixture was transferred to a 50 mL tubes, centrifuged at 10 000xg for 10 min (4° C.) and the supernatant was passed through a 0.45 µm-filter. In a 96 deep-well plate, 198 µL of feces supernatant were aliquoted in 2 wells per compound. Each compound, including positive control, was tested in duplicate. Then 2 µL of 10 mM stock solution of each test compound were spiked in individual wells (duplicate) at a final concentration of 100 µM and samples were sealed and mixed 30 sec at 1000 rpm using a vortexer. Samples were incubated at 37° C. for the desired time in the Thermomixer with constant agitation (300 rpm). At desired time-point, 25 µL of reaction mixture was added to 225 µL of ice-cold quenching solution (acetonitrile + 0.1% (v/v) formic acid) to stop the bacterial enzymatic activity. The quenched incubates were mixed and centrifuged 10 min at 21 000xg at 4° C. A real t0 (no metabolism, 100% total recovery of unchanged prodrug) was generated by adding 22.5 µL of feces supernatant to 225 µL of ice-cold quenching solution (acetonitrile + 0.1% (v/v) formic acid). Then 2.5 µL of 1 mM solution of each test compounds was added, sealed, mixed thoroughly and centrifuged 10 min at 21 000xg at 4° C. All samples, including analytical standards, were analyzed by LC-MS/MS to measure the concentration of the parent PDE4 inhibitor released and the concentration of the corresponding prodrug remaining. A set criteria of 100% recovery is targeted where the summation of the % of prodrug remaining and the % of parent PDE4 inhibitor released should be 100% with an experimental error tolerance of ± 20%. When prodrugs represented by Formula (I) were incubated 24 hours under the conditions described above using mouse, rat and dog feces, the glycoside prodrugs were hydrolyzed to release the corresponding parent PDE4 inhibitor III (Table 3). As a negative control, when compound 4, 10 and 21 were incubated 24 hours under the conditions described above but in the absence of enzyme activities, using mouse feces extract supernatant inactivated by boiling the supernatant 10 minutes, 100% of the prodrugs were recovered unchanged.

[5] = In vitro rate of glycoside prodrug hydrolysis in feces supernatant, rat; assay type: in vitro ADME; settings: 100 µM, 37° C., pH 6.5, 24 hr
Experimental: as §2

[6] = In vitro rate of glycoside prodrug hydrolysis in feces supernatant, dog; assay type: in vitro ADME; settings: 100 µM, 37° C., pH 6.5, 24 hr
Experimental: as §1, with “At desired time-point, 25 µL of reaction mixture was added to 225 µL of ice-cold quenching solution (acetonitrile + 0.1% (v/v) formic acid) to stop the bacterial enzymatic activity. The quenched incubates were mixed and centrifuged 10 min at 21 000xg at 4° C. A real t0 (no metabolism, 100% total recovery of unchanged prodrug) was generated by adding 22.5 µL of feces supernatant to 225 µL of ice-cold quenching solution (acetonitrile + 0.1% (v/v) formic acid). Then 2.5 µL of 1 mM solution of each test compounds was added, sealed, mixed thoroughly and centrifuged 10 min at 21 000xg at 4° C.” left out

[7] = In vivo glycoside prodrug bioactivation, oral dosing to C57BI/6 mice; settings: labrasol/5%dextrose solution, over 48 hours
PDE4B1 = PDE4B1 (Homo sapiens, UniProt Q07343); experiment: Inhibitory potency against PDE4 isozymes (FAM-cAMP fluorescence polarization), PDE4B1
PDE4B1, sequence (Q07343 whole entry, species assumed): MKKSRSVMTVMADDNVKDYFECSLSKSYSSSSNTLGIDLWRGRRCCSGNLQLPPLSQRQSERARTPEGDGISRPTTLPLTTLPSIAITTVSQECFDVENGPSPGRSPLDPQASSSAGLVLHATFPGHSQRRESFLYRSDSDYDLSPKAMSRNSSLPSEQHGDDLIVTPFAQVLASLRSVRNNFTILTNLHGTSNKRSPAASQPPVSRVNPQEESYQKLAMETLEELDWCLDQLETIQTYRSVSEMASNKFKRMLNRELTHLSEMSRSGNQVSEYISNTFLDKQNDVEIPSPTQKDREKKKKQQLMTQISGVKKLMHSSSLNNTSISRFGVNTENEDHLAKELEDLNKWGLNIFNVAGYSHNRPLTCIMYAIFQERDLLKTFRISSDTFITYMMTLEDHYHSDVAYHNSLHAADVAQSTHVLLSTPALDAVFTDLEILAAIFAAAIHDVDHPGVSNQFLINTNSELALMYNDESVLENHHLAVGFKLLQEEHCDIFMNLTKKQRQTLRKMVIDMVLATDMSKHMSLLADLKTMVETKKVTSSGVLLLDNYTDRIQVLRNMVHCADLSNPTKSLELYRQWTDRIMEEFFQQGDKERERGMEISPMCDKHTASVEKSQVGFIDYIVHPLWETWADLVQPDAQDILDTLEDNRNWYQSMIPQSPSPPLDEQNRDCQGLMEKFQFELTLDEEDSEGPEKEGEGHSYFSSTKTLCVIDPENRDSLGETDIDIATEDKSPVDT

in vivo = settings: C57BI/6, mouse, po
PDE4D2 = PDE4D2 (Homo sapiens, UniProt Q08499); experiment: Inhibitory potency against PDE4 isozymes (FAM-cAMP fluorescence polarization), PDE4D2
PDE4D2, sequence (Q08499 303-809 limits assumed): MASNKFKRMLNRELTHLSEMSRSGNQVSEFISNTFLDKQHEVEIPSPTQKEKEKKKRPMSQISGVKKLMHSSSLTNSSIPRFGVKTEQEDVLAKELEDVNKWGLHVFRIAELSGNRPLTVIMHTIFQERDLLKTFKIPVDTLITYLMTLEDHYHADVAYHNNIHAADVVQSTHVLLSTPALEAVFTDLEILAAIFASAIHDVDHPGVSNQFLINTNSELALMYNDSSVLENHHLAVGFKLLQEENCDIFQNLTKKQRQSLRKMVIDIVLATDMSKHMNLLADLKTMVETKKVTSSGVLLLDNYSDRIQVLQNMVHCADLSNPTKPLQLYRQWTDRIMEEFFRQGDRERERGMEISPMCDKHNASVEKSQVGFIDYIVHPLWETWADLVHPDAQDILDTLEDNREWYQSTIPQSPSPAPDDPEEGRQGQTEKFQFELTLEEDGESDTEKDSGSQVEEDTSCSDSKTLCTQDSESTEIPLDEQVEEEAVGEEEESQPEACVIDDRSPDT

[8] = tested on: LPS-induced TNFα in human whole blood; experiment: LPS-induced TNFα assay in human whole blood; assay type: cell-based; settings: human whole blood from 12 healthy volunteers, LPS 1 µg/mL, 24 h; read-out: average IC50, TNFα inhibition
Experimental: TNFα inhibition assay protocol. Potency of PDE4 inhibitors in the LPS-induced TNFα assay in human whole blood was measured using the following protocol: fresh blood is collected in heparinized tubes by venipuncture from healthy human volunteers (male and female). These subjects should not have apparent inflammatory conditions, no symptoms of bacterial/viral infection, no fever and should not take any NSAIDs for at least 1 week prior to blood collection. Blood from each donor was dispensed in a 96-deep well plate, 500 µL per well. Blood was pre-incubated with either 2 µL of vehicle (DMSO) or test compound at 37° C. /5% CO2 for 15 min. […] Duplicate independent incubations were performed for each inhibitor concentration with blood from each donor. Appropriate PBS controls (no LPS) were used as blanks (4 wells) while blood samples stimulated with LPS controls (no PDE4 inhibitor) served as positive controls (4 wells). […] Plasma TNFα was quantified by ELISA (Invitrogen, Frederick, MD, USA) following the manufacturer’s instructions. […] Assay plates were read on an Infinite F200 PRO-Tecan reader at 450 nm. Absorbance values were converted to % inhibition based on positive and negative control values on each plate, and resulting % inhibition data were fit to a four-parameter logistic by nonlinear regression using GraphPad Prism (version 6.00, GraphPad Software, Inc., La Jolla, CA, USA). […]

| Compound | Papp A→B at 10 µM [1] [×10⁻⁶ cm/s] | extent of prodrug bioactivation (ratio of parent IIIb over residual prodrug 10 in excreted feces) ([2]; oral, aqueous suspension, over 24 hours) [%] | prodrug recovered unchanged [3] [%] | prodrug recovered unchanged (β-D-glucuronidase) [%] | Prodrug Remaining @ 24 hr (%) [4] [%] | Prodrug Remaining @ 24 hr (%) [5] [%] | Prodrug Remaining @ 24 hr (%) [6] [%] | unchanged prodrug detected in excreted feces [7] | IC50 (PDE4B1) [nM] | Kp (in vivo) | IC50 (PDE4D2) [nM] | time before which released IIIb was not detected in blood ([2]; compound 10 orally as aqueous suspension) [h] | IC50 [8] [nM] |
| --- | --- | --- | --- | --- | --- | --- | --- | --- | --- | --- | --- | --- | --- |
| COC(=O)[C@H]1O[C@@H](Oc2ccc(C[C@H](c3ccc(C(C)(C)O)nc3)c3ccc(OC(F)F)c(OC4CC4)c3)cn2)[C@H](O)[C@@H](O)[C@@H]1O [Compound 10, (2S,3S,4S,5R,6S)-methyl 6-((5-((S)-2-(3-cyclopropoxy-4-(difluoromethoxy)phenyl)-2-(6-(2-hydroxypropan-2-yl)pyridin-3-yl)ethyl)pyridin-2-yl)oxy)-3,4,5-trihydroxytetrahydro-2H-pyran-2-carboxylate] | 0.3 | 96 | 100 | 64 | 74 | 47 | 67 | only trace amount |  |  |  |  |  |
| CC(C)(O)c1ccc([C@@H](Cc2ccc(=O)[nH]c2)c2ccc(OC(F)F)c(OC3CC3)c2)cn1 [IIIb, (S)-5-(2-(3-cyclopropoxy-4-(difluoromethoxy)phenyl)-2-(6-(2-hydroxypropan-2-yl)pyridin-3-yl)ethyl)pyridin-2(1H)-one] |  |  |  |  |  |  |  |  | < 10 | 200 | < 10 | ≥ 2 | < 50 |
